{"source": "patent US7271198B2", "about": "“Method of treating autoimmune diseases” (Wake Forest University, priority 2000, dated 2007)", "key": {"[1]": {"system": "HDAC", "conditions": "statement from cited literature; cited from earlier work"}, "[2]": {"system": "TGF-β1 mRNA", "assay": "PCR of TGF-β1 mRNA in SLE and control T cells / PBMCs", "type": "cell-based, human", "conditions": "SLE PBMCs exposed to TSA and SAHA (summary statement)", "description": "(§1) Gene expression of TGF-β1 was tested to determine if the gene expression is suppressed by deacetylation of histones in SLE. In this determination, SLE PBMCs or isolated T cells were treated with the histone deacetylase inhibitors (HDIs), TSA or SAHA, for 18hr. […] Subsequently, semi-quantitative PCR was performed to determine the amounts of […] transcripts in SLE and control T cells treated with vehicle or TSA (1000 ng/ml). […] There is no change in GAPDH transcript in normal and SLE T cells after treatment of HDIs. Increased TGF-β1 transcript was associated with a subsequent increase in TGF-β1 protein secretion by SLE PBMCs. When compared to vehicle treated PBMCs, total TGF-β1 protein in culture supernatants from SLE PBMCs increased by approximately 30%. In contrast, there was no increase in total TGF-β1 secretion in TSA treated cells in normal healthy controls. Similar results may be obtained by SAHA."}, "[3]": {"system": "TGF-β1 protein", "assay": "TGF-β1 protein secretion by PBMCs", "type": "cell-based, human", "conditions": "SLE PBMCs exposed to TSA and SAHA (summary statement)", "description": "as §1"}, "[4]": {"system": "acetylated H3 and H4 histones", "assay": "Western immunoblot of acetylated H3 and H4 histones in SLE PBMCs", "type": "cell-based, human", "conditions": "1000 ng/ml TSA or 20 μM SAHA, 18 hr", "description": "The effect of TSA and SAHA was examined to determine if HDIs induce accumulation of acetylated histones in SLE PBMCs on the level of histone acetylation in SLE PBMCs. Following culture of PBMCs in the presence of vehicle, 1000 ng/ml TSA or 20 μM SAHA for 18 hr, histones were isolated."}, "[5]": {"system": "IFN-γ mRNA", "assay": "IFN-γ mRNA in MRL/lpr splenocytes", "type": "cell-based, mouse", "description": "In determining whether TSA can down-regulate IFN-γ mRNA, splenocytes from older, 24-wk MRL/lpr mice were treated with 0 to 500 ng/ml of TSA for 18 hr. […] Compared to splenocytes from 10-wk old mice that had low IFN-γ mRNA (FIG. 8B, lane 1), older mice had higher constitutive levels of IFN-γ transcripts normalized to the housekeeping gene, GAPDH (FIG. 8A, lane 1). […] Maximal inhibition of IFN-γ transcript consistently occurred at 500 ng/ml of TSA.\nTo establish whether TSA or SAHA down-regulates Con A-induced IFN-γ mRNA expression, splenocytes from 10-wk old mice were stimulated with Con A (10 μg/ml) for 18 hr. From previous kinetic studies, IFN-γ mRNA is maximally expressed when T cells are activated for 18 hr. […] Thus, both TSA and SAHA inhibit IFN-γ. mRNA up-regulation in response to mitogenic stimulation."}, "[6]": {"system": "IFN-γ protein", "assay": "IFN-γ protein secretion by MRL/lpr splenocytes", "type": "cell-based, mouse", "conditions": "Con A-stimulated splenocytes from younger MRL/lpr mice, 72 hr; p=0.004", "text": "The marked inhibition of IFN-γ transcript by these inhibitors prompted us to quantify IFN-γ protein secretion in splenocyte culture supernatants. Over 72 hr, Con A, but not LPS, stimulated splenocytes from younger MRL/lpr mice to secrete a mean (±SEM) 1,563.2±88.3 pg/ml of IFN-γ (FIG. 8D). […] Thus, inhibition of IFN-γ transcription by TSA and SAHA blocks secretion of IFN-γ protein by splenocytes."}, "[7]": {"system": "IL-12 p35 and p40 transcripts", "assay": "IL-12 p35 and p40 transcripts in MRL/lpr splenocytes", "type": "cell-based, mouse", "conditions": "splenocytes from 10-wk old MRL/lpr mice preincubated 18 hr, stimulated 6 or 18 hr", "description": "In this study, the question of whether TSA down-regulates transcription of both IL-12 p35 and p40 subunit mRNA was investigated. […] Splenocytes were stimulated with LPS and IFN-γ for 6 or 18 hr. […] When splenocytes were preincubated with TSA or SAHA for 18 hr and then stimulated with LPS and IFN-γ IL-12 p35 and p40 transcripts were undetectable (FIGS. 9B–D)."}, "[8]": {"system": "IL-12 p40 protein", "assay": "IL-12 p40 protein secretion by MRL/lpr splenocytes", "type": "cell-based, mouse", "conditions": "splenocytes stimulated with LPS and IFN-γ 24 hr; stimulated control 45.3±9.1; p=0.003", "description": "When splenocytes were activated with LPS (100 μg/ml) and IFN-γ 100U/ml) for 24 hr the mean (±SEM) IL-12 p40 secretion was 45.3±9.1 pg/ml."}, "[9]": {"system": "IL-6 mRNA", "assay": "IL-6 mRNA in MRL/lpr splenocytes", "type": "cell-based, mouse", "conditions": "splenocytes from younger MRL/lpr mice pretreated 18 hr, stimulated 6 or 18 hr", "description": "(§2) In determining whether TSA or SAHA down-regulate IL-6 mRNA content, splenocytes from 24-wk MRL/lpr mice were treated with increasing concentrations of TSA for 18 hr. […] TSA decreased IL-6 transcript at a concentration of 100 ng/ml and exerted maximal inhibition at 300 ng/ml. To address whether TSA and SAHA down-regulate LPS- and IFN-γ induced IL-6 transcript levels, splenocytes from younger MRL/lpr mice were treated in the absence or presence of TSA or SAHA for 18 hr before LPS and IFN-γ stimulation for 6 or 18 hr. […] Next, the effect of TSA and SAHA on IL-6 protein secretion in stimulated splenocytes was measured (FIG. 10D). When splenocytes were cultured with LPS and IFN-γ for 72 hr, there was a mean (±SEM) 34.4±7.6 pg/ml of IL-6 protein secretion."}, "[10]": {"system": "IL-6 protein", "assay": "IL-6 protein secretion by MRL/lpr splenocytes", "type": "cell-based, mouse", "conditions": "splenocytes with LPS and IFN-γ 72 hr; stimulated control 34.4±7.6 pg/ml; p=0.002", "description": "as §2"}, "[11]": {"system": "IL-10 mRNA", "assay": "IL-10 mRNA in MRL/lpr splenocytes", "type": "cell-based, mouse", "conditions": "splenocytes from 10-wk old MRL/lpr mice pretreated 18 hr, stimulated 6 or 18 hr", "description": "In investigating whether TSA down-regulates IL-10 mRNA, MRL/lpr splenocytes were treated with increasing concentrations of TSA. The heightened, constitutive expression of IL-10 mRNA confirms previous findings (FIGS. 11A & 11B, lane 1). […] To address whether TSA and SAHA down-regulate LPS- and IFN-γ induced IL-10 transcript, splenocytes from 10-wk old MRL/lpr mice were treated in the absence or presence of TSA or SAHA for 18 hr before LPS and IFN-γ stimulation for 6 or 18 hr."}, "[12]": {"system": "IL-10 protein", "assay": "IL-10 protein secretion by MRL/lpr splenocytes", "type": "cell-based, mouse", "conditions": "MRL/lpr splenocytes stimulated by LPS, Con A, or LPS+IFN-γ, 72 hr", "text": "To determine the effect of TSA and SAHA on IL-10 protein secretion, MRL/lpr splenocytes were stimulated with Con A, LPS, or LPS+IFN-γ for 72 hr in the absence or presence of TSA or SAHA. As shown in the FIG. 11D, splenocytes stimulated with Con A, LPS, or LPS+IFN-γ secreted a mean (±SEM) of 31.8±4.5, 32.3±1.9, and 34.8±4.9 pg/ml, respectively, of IL-10 protein."}, "[13]": {"system": "acetylated H3 and H4 histones", "assay": "Immunoblot of acetylated H3 and H4 histones in MRL/lpr splenocytes", "type": "cell-based, mouse", "conditions": "18 hr exposure", "text": "One mechanism by which HDIs suppress transcription of cytokine genes in MRL/lpr splenocytes may be by increasing accumulation of acetylated histones which may result in chromatin remodeling. The accumulation of acetylated histones H3 and H4 in HDI-treated splenocytes was quantified to test this hypothesis. FIG. 12 is an immunoblot analysis of the acetylation levels of H3 and H4 histones."}, "[14]": {"system": "iNOS mRNA", "assay": "iNOS mRNA induction in MRL/lpr splenocytes", "type": "cell-based, mouse", "conditions": "splenocytes from 10 wk old mice, LPS and IFN-γ 24 hr", "text": "Excessive production of nitric oxide (NO) is crucial to the initiation and maintenance of glomerulonephritis in MRL/lpr mice. Pharmacologic inhibition of NO synthesis in MRL/lpr mice abrogates disease progression. In examining whether HDIs could suppress inducible nitric oxide synthetase (iNOS), splenocytes from 10 wk old mice were stimulated in the presence or absence of TSA or SAHA with LPS and IFN-γ for 24 hr. […] To determine whether HDIs could suppress nitric oxide secretion by mesangial cells, mesangial cells were stimulated with LPS ([…]) in the presence of vehicle or TSA for 24 hr. The supernatant from the cell culture was assayed for nitric oxide."}}}
{"molecule": "CCOC(=O)C(CCCCCC(=O)N(C)C)(CCCCCC(=O)N(C)C)C(=O)OCC", "note": "[EMBA, Diethyl bix(pentamethylene-N,N-dimethylcarboxamide) malonate]", "values": [{"measurement": "HDAC inhibition", "setting": "[1]", "value": "not effective as HDAC Inhibitors"}]}
{"molecule": "CC(=O)NCCCCCCNC(C)=O", "note": "[HBMA, Hexamethylene bisacetamide]", "values": [{"measurement": "HDAC inhibition", "setting": "[1]", "value": "not effective as HDAC Inhibitors"}]}
{"molecule": "O=C(CCCCCCC(=O)Nc1ccccc1)NO", "note": "[SAHA, Suberoylanilide Hydroxamic Acid]", "values": [{"measurement": "increase in TGF-β1 transcript", "setting": "[2]", "value": "eight-fold"}, {"measurement": "rise in the synthesis of TGF-β1 protein", "setting": "[3]", "value": 30, "unit": "%"}, {"measurement": "accumulation of acetylated H3 and H4 histones", "setting": "[4]", "value": "induced the accumulation"}, {"measurement": "optimal dose in dose titration experiments", "setting": "[5]; MRL/lpr splenocytes, data not shown", "value": 10, "unit": "µM"}, {"measurement": "Con A-induced up-regulation of IFN-γ transcript", "setting": "[5]; splenocytes from 10-wk old mice preincubated 18 hr, Con A 10 μg/ml 18 hr, vs vehicle", "value": "markedly reduced"}, {"measurement": "IFN-γ protein secretion", "setting": "[6]", "value": "did not secrete detectable levels"}, {"measurement": "LPS and IFN-γ induced IL-12 p35 and p40 transcripts", "setting": "[7]", "value": "undetectable"}, {"measurement": "IL-12 p40 secretion (mean±SEM)", "setting": "[8]", "value": "9.1 ± 1.9", "unit": "pg/mL"}, {"measurement": "LPS- and IFN-γ induced IL-6 mRNA", "setting": "[9]", "value": "no detectable IL-6 mRNA"}, {"measurement": "IL-6 protein secretion", "setting": "[10]", "value": "no detectable IL-6 protein secretion"}, {"measurement": "LPS- and IFN-γ induced IL-10 mRNA", "setting": "[11]", "value": "no detectable IL-10 mRNA"}, {"measurement": "IL-10 protein secretion", "setting": "[12]", "value": "no detectable IL-10 secretion"}, {"measurement": "accumulation of acetylated H3 and H4 histones", "setting": "[13]", "value": "marked increase"}, {"measurement": "iNOS mRNA induction", "setting": "[14]", "value": "able to suppress iNOS mRNA induction"}]}
{"molecule": "mono-MTM-depudecin", "values": [{"measurement": "HDAC inhibition", "setting": "[1]", "value": "do not inhibit HDAC"}]}
